How the values were obtained:
[1] = tested on: Splenic CD4 T cell responses (SIV-Gag DD13 epitope); assay: Splenic CD4 T cell responses by ICS after SIV-Gag protein with or without GLA-SE (Example 8); assay type: in vivo, C57BL/6 mice; conditions: 5 μg SIV-Gag protein + 5 μg GLA-SE vs SE alone or PBS, i.m. d0/d21, day 5 post-boost
Description: C57BL/6 mice (4 per group) were immunized intramuscularly via a prime/boost immunization regimen (d0 prime/d21 boost) with 5 μg of recombinant SIV-Gag protein+5 μg of GLA-SE, SE alone, or PBS. Splenic CD4 T cell responses were measured on day 5 post-boost by ICS for IFN-γ, TNF-α, and IL-2 after ex vivo re-stimulation with SIV-Gag CD4 T cell epitope containing peptide DD13 (amino acids 299-311 of SIV-GAG; DRFYKSLRAEQTD; SEQ ID NO: 45)

HSV = conditions: continuous suppressive administration, early intervention; Corey et al. 2004; cited from earlier work

CCCCCCCCCCCCCC(=O)O[C@H](CCCCCCCCCCC)CC(=O)O[C@@H]1[C@@H](NC(=O)C[C@H](CCCCCCCCCCC)OC(=O)CCCCCCCCCCCCC)[C@H](OC[C@H]2O[C@H](O)[C@H](NC(=O)C[C@H](O)CCCCCCCCCCC)[C@@H](OC(=O)C[C@H](O)CCCCCCCCCCC)[C@@H]2O)O[C@H](CO)[C@H]1OP(=O)(O)O [GLA, glucopyranosyl lipid A]
Th1 CD4 T cell response after immunization with SIV-Gag recombinant protein [1]: required for a robust Th1 CD4 T cell response

CC(C)[C@H](N)C(=O)OCCOCn1cnc2c(=O)[nH]c(N)nc21 [Valacyclovir]
reduction of HSV transmission (HSV): less than 50%
